Experimental data as given in patent US20100298141A1, “SUBSTITUTED PYRIDINE N-OXIDE HERBICIDES” (E. I. DU PONT DE NEMOURS AND COMPANY, priority 2007, published 2010).

Tests used:
[1] = system: annual bluegrass; assay: Test D preemergence test; type: in vivo, Poa annua; settings: scale 0 to 100
Excerpt: (§1) Seeds of plant species selected from annual bluegrass (Poa annua), blackgrass (Alopecurus myosuroides), downy bromegrass (Bromus tectorum), field violet (Viola arvensis), green foxtail (Setaria viridis), Italian ryegrass (Lolium multiflorum), littleseed canarygrass (Phalaris minor), spring wheat (Triticum aestivum), wild oat (Avena fatua), […]), winter barley (Hordeum vulgare), and winter wheat (Triticum aestivum) were planted and treated preemergence with test chemicals formulated in a non-phytotoxic solvent mixture which included a surfactant. […] A dash (-) response means no test result.

[2] = system: downy bromegrass; assay: Test D preemergence test; type: in vivo, Bromus tectorum; settings: scale 0 to 100
Excerpt: as §1

[3] = system: field violet; assay: Test D preemergence test; type: in vivo, Viola arvensis; settings: scale 0 to 100
Excerpt: as §1

[4] = system: Italian ryegrass; assay: Test D preemergence test; type: in vivo, Lolium multiflorum; settings: scale 0 to 100
Excerpt: as §1

[5] = system: littleseed canarygrass; assay: Test D preemergence test; type: in vivo, Phalaris minor; settings: scale 0 to 100
Excerpt: as §1

[6] = system: spring wheat; assay: Test D preemergence test; type: in vivo, Triticum aestivum; settings: scale 0 to 100
Excerpt: as §1

[7] = system: winter wheat; assay: Test D preemergence test; type: in vivo, Triticum aestivum; settings: scale 0 to 100
Excerpt: as §1

[8] = system: wild oat; assay: Test D preemergence test; type: in vivo, Avena fatua; settings: scale 0 to 100
Excerpt: as §1

[9] = system: winter barley; assay: Test D preemergence test; type: in vivo, Hordeum vulgare
Excerpt: as §1

[10] = system: broadleaf signalgrass; assay: Test G preemergence test; type: in vivo, Brachiaria platyphylla; settings: scale 0 to 100
[11] = system: cotton; assay: Test G preemergence test; type: in vivo, Gossypium hirsutum; settings: scale 0 to 100
[12] = system: eastern black nightshade; assay: Test G preemergence test; type: in vivo, Solanum ptycanthum; settings: scale 0 to 100
[13] = system: fall panicum; assay: Test G preemergence test; type: in vivo, Panicum dichotomiflorum; settings: scale 0 to 100
[14] = system: giant foxtail; assay: Test G preemergence test; type: in vivo, Setaria faberii; settings: scale 0 to 100
[15] = system: goosegrass; assay: Test G preemergence test; type: in vivo, Eleusine indica; settings: scale 0 to 100
[16] = system: itchgrass; assay: Test G preemergence test; type: in vivo, Rottboellia cochinchinensis; settings: scale 0 to 100
[17] = system: large crabgrass; assay: Test G preemergence test; type: in vivo, Digitaria sanguinalis; settings: scale 0 to 100
[18] = system: millet; assay: Test G preemergence test; type: in vivo, Panicum miliaceum; settings: scale 0 to 100
[19] = system: millet foxtail; assay: Test G preemergence test; type: in vivo, Setaria italica; settings: scale 0 to 100
[20] = system: sorghum; assay: Test G preemergence test; type: in vivo, Sorghum vulgare; settings: scale 0 to 100
[21] = system: yellow foxtail; assay: Test G preemergence test; type: in vivo, Pennisetum glaucum; settings: scale 0 to 100
[22] = system: yellow nutsedge; assay: Test G preemergence test; type: in vivo, Cyperus esculentus; settings: scale 0 to 100
[23] = system: woolly cupgrass; assay: Test G preemergence test; type: in vivo, Eriochloa villosa; settings: scale 0 to 100

Cc1cc[n+]([O-])c(S(=O)(=O)C(C)c2c(C(F)(F)F)nn(C)c2Cl)c1 (racemic) [Compound 14]
45: Plant response rating, Field Violet ([3]; 250 g ai/ha) | Plant response rating, Crabgrass, Large ([17]; 62 g ai/ha)
65: Plant response rating, Bluegrass ([1]; 125 g ai/ha) | Plant response rating, Sorghum ([20]; 250 g ai/ha) | Plant response rating, Nutsedge, Yellow ([22]; 250 g ai/ha)
95: Plant response rating, Goosegrass ([15]; 62 g ai/ha) | Plant response rating, Foxtail, Yellow ([21]; 125 g ai/ha) | Plant response rating, Foxtail, Yellow ([21]; 250 g ai/ha) | Plant response rating, Cupgrass, Woolly ([23]; 250 g ai/ha)
85: Plant response rating, Signalgrass ([10]; 250 g ai/ha) | Plant response rating, Goosegrass ([15]; 31 g ai/ha)
70: Plant response rating, Fall Panicum ([13]; 125 g ai/ha) | Plant response rating, Foxtail, Millet ([19]; 125 g ai/ha) | Plant response rating, Cupgrass, Woolly ([23]; 125 g ai/ha)
15: Plant response rating, Canarygrass ([5]; 125 g ai/ha) | Plant response rating, Wheat, Spring ([6]; 125 g ai/ha) | Plant response rating, Barley ([9]; preemergence, 250 g ai/ha, scale 0 (no effect) to 100 (complete control)) | Plant response rating, Signalgrass ([10]; 62 g ai/ha) | Plant response rating, Fall Panicum ([13]; 31 g ai/ha) | Plant response rating, Itchgrass ([16]; 125 g ai/ha) | Plant response rating, Millet ([18]; 62 g ai/ha)
20: Plant response rating, Canarygrass ([5]; 250 g ai/ha) | Plant response rating, Wheat, Spring ([6]; 250 g ai/ha) | Plant response rating, Wheat, Winter ([7]; 125 g ai/ha) | Plant response rating, Oat, Wild ([8]; 250 g ai/ha) | Plant response rating, Signalgrass ([10]; 125 g ai/ha) | Plant response rating, Foxtail, Giant ([14]; 62 g ai/ha) | Plant response rating, Itchgrass ([16]; 250 g ai/ha) | Plant response rating, Millet ([18]; 125 g ai/ha) | Plant response rating, Foxtail, Millet ([19]; 62 g ai/ha) | Plant response rating, Sorghum ([20]; 125 g ai/ha)
60: Plant response rating, Bromegrass, Downy ([2]; 125 g ai/ha) | Plant response rating, Bromegrass, Downy ([2]; 250 g ai/ha)
35: Plant response rating, Wheat, Winter ([7]; 250 g ai/ha)
100: Plant response rating, Bluegrass ([1]; 250 g ai/ha) | Plant response rating, Ryegrass, Italian ([4]; 250 g ai/ha) | Plant response rating, Fall Panicum ([13]; 250 g ai/ha) | Plant response rating, Foxtail, Giant ([14]; 125 g ai/ha) | Plant response rating, Foxtail, Giant ([14]; 250 g ai/ha) | Plant response rating, Goosegrass ([15]; 125 g ai/ha) | Plant response rating, Goosegrass ([15]; 250 g ai/ha) | Plant response rating, Crabgrass, Large ([17]; 125 g ai/ha) | Plant response rating, Crabgrass, Large ([17]; 250 g ai/ha) | Plant response rating, Foxtail, Millet ([19]; 250 g ai/ha)
0: Plant response rating, Bluegrass ([1]; 31 g ai/ha) | Plant response rating, Bluegrass ([1]; 62 g ai/ha) | Plant response rating, Bromegrass, Downy ([2]; 31 g ai/ha) | Plant response rating, Bromegrass, Downy ([2]; 62 g ai/ha) | Plant response rating, Field Violet ([3]; 31 g ai/ha) | Plant response rating, Field Violet ([3]; 62 g ai/ha) | Plant response rating, Field Violet ([3]; 125 g ai/ha) | Plant response rating, Ryegrass, Italian ([4]; 31 g ai/ha) | Plant response rating, Ryegrass, Italian ([4]; 62 g ai/ha) | Plant response rating, Ryegrass, Italian ([4]; 125 g ai/ha) | Plant response rating, Canarygrass ([5]; 31 g ai/ha) | Plant response rating, Canarygrass ([5]; 62 g ai/ha) | Plant response rating, Wheat, Spring ([6]; 31 g ai/ha) | Plant response rating, Wheat, Spring ([6]; 62 g ai/ha) | Plant response rating, Wheat, Winter ([7]; 31 g ai/ha) | Plant response rating, Wheat, Winter ([7]; 62 g ai/ha) | Plant response rating, Oat, Wild ([8]; 31 g ai/ha) | Plant response rating, Oat, Wild ([8]; 62 g ai/ha) | Plant response rating, Oat, Wild ([8]; 125 g ai/ha) | Plant response rating, Barley ([9]; Preemergence, 62 g ai/ha, scale 0 to 100) | Plant response rating, Barley ([9]; Preemergence, 125 g ai/ha, scale 0 to 100) | Plant response rating, Barley ([9]; Preemergence, 31 g ai/ha, scale 0 to 100) | Plant response rating, Signalgrass ([10]; 31 g ai/ha) | Plant response rating, Cotton ([11]; 31 g ai/ha) | Plant response rating, Cotton ([11]; 62 g ai/ha) | Plant response rating, Cotton ([11]; 125 g ai/ha) | Plant response rating, Cotton ([11]; 250 g ai/ha) | Plant response rating, Nightshade ([12]; 31 g ai/ha) | Plant response rating, Nightshade ([12]; 62 g ai/ha) | Plant response rating, Nightshade ([12]; 125 g ai/ha) | Plant response rating, Foxtail, Giant ([14]; 31 g ai/ha) | Plant response rating, Itchgrass ([16]; 31 g ai/ha) | Plant response rating, Itchgrass ([16]; 62 g ai/ha) | Plant response rating, Crabgrass, Large ([17]; 31 g ai/ha) | Plant response rating, Millet ([18]; 31 g ai/ha) | Plant response rating, Foxtail, Millet ([19]; 31 g ai/ha) | Plant response rating, Sorghum ([20]; 31 g ai/ha) | Plant response rating, Sorghum ([20]; 62 g ai/ha) | Plant response rating, Foxtail, Yellow ([21]; 31 g ai/ha) | Plant response rating, Foxtail, Yellow ([21]; 62 g ai/ha) | Plant response rating, Nutsedge, Yellow ([22]; 31 g ai/ha) | Plant response rating, Nutsedge, Yellow ([22]; 62 g ai/ha) | Plant response rating, Nutsedge, Yellow ([22]; 125 g ai/ha) | Plant response rating, Cupgrass, Woolly ([23]; 31 g ai/ha) | Plant response rating, Cupgrass, Woolly ([23]; 62 g ai/ha)
75: Plant response rating, Millet ([18]; 250 g ai/ha)
55: Plant response rating, Nightshade ([12]; 250 g ai/ha)
50: Plant response rating, Fall Panicum ([13]; 62 g ai/ha)
